In BindingDB's records for PubMed 36324498 (Yangtze University, 2022):

Biological target: Tyrosine-protein kinase Tec (Homo sapiens) (UniProt P42680)
Assay: Inhibition of TEC (unknown origin)

Sequence of Tyrosine-protein kinase Tec (Homo sapiens) (P42680 whole entry, looked up): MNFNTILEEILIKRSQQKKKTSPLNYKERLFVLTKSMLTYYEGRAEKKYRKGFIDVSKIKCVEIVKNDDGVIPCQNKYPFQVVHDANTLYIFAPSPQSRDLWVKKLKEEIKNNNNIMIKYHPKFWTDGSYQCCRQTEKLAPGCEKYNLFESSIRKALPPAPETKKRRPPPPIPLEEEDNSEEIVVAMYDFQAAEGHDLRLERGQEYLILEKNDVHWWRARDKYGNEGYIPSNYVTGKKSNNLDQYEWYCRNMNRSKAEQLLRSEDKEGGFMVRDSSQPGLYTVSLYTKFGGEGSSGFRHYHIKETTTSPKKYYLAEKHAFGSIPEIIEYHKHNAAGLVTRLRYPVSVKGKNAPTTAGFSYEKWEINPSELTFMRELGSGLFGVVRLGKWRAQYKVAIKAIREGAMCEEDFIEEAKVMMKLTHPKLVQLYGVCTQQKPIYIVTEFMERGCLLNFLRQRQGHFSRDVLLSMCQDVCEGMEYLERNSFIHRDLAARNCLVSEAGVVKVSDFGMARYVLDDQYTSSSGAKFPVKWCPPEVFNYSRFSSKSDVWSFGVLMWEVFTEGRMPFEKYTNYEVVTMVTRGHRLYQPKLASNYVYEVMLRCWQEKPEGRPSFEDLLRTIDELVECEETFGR

IC50: 1.2 nM
Structure (SMILES): N#CN1CCC[C@@H](n2nc(-c3ccc(Oc4ccc(F)cc4F)cc3)c(C(N)=O)c2N)C1
